Read-outs that look alike come from different tables or passages of the source.
Legend:
[1] = target: T1, unphosphorylated VEGF-R2Δ50 (FLVK) (Homo sapiens, UniProt P35968, DEL940-989/E990V); test: VEGF-R2 coupled spectrophotometric assay, unphosphorylated VEGF-R2Δ50 (FLVK); format: biochemical; details: for inhibition at 0.1 µM: read-out: FLVK (% @ 100 nM); for inhibition at 0.05 µM: read-out: FLVK (% inh @ 50 nM)
T1 construct: VEGF-R2Δ50 contains residues 806–939 and 990–1171; made in house; host or cells: baculovirus/insect cell system
How it was run: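 Ki obtained by Morrison-equation fitting of activity at varied compound levels; reaction started with 5–40 nM enzyme. Non-autophosphorylated kinase construct (insect cell-expressed) with 3 mM ATP, 20 mM poly(E4Y1), 60 mM MgCl2 plus 2 mM MnCl2, pH 7.5 HEPES; NADH loss at 340 nm via PK/LDH coupling.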

FGF-R1 = target: T2, FGF-R1 (Homo sapiens, UniProt P11362, C488A/C584S/L457V); test: FGF-R spectrophotometric assay; format: biochemical; details: percent inhibition at 100 nM; library amides from Example 101 (R101), crude mixtures in DMSO
T2 construct: starting from the endogenous methionine residue 456 to glutamate 766; made in house; host or cells: baculovirus vector expression system
Experimental: FGF-R1 Construct for Assay:
The intracellular kinase domain of human FGF-R1 was expressed using the baculovirus vector expression system starting from the endogenous methionine residue 456 to glutamate 766, according to the residue numbering system of Mohammadi et al., Mol. Cell. Bio., 16, 977–989 (1996). In addition, the construct also has the following 3 amino acid substitutions: L457V, C488A, and C584S.
The spectrophotometric assay was carried out as described above for VEGF-R2, except for the following changes in concentration: FGF-R=50 nM, ATP=2 mM, and poly(E4Y1)=15 mM.

PDGFRβ = target: T3, PDGFRβ (Homo sapiens, UniProt P09619); test: PAE-PDGFRβ phosphorylation in PAE-PDGFRB cells assay; format: cell-based
T3 construct: expressed in transfected cells; host or cells: porcine aorta endothelial (PAE)-PDGFRβ cells
How it was run: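 Inhibition of PDGF-BB-induced (1 μg/mL, 8 min, with 2 mM vanadate) PDGFRβ autophosphorylation in porcine aortic endothelial cells expressing the human receptor. Cells were starved 16 h and pretreated with compound 1 h at 37 °C. Lysates were captured with anti-PDGFRβ and probed with HRP-PY20 at 450 nm; four-parameter IC50.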

Huvec = test: bFGF Huvec proliferation; format: cell-based, human
Mouse PK assay = format: in vivo; details: 50 mg/kg, B6 female mice, plasma; for AUC / Cmax: mouse, po
Experimental: The pharmacokinetics (e.g., absorption and elimination) of drugs in mice were analyzed using the following experiment. Test compounds were formulated as a suspension in a 30:70 (PEG 400:acidified H2O) vehicle. This solution was administered orally (p.o.) and intraperitoneally (i.p.) at 50 mg/kg to two distinct groups (n=4) of B6 female mice. Blood samples were collected via an orbital bleed at time points: 0 hour (pre-dose), 0.5 hr, 1.0 hr, 2.0 hr, and 4.0 hr post dose. Plasma was obtained from each sample by centrifugation at 2500 rpm for 5 min. Test compound was extracted from the plasma by an organic protein precipitation method. For each time bleed, 50 μL of plasma was combined with 1.0 mL of acetonitrile, vortexed for 2 min. and then spun at 4000 rpm for 15 min. to precipitate the protein and extract out the test compound. Next, the acetonitrile supernatant (the extract containing test compound) was poured into new test tubes and evaporated on a hot plate (25° C.) under a steam of N2 gas. To each tube containing the dried test compound extract, 125 μL of mobile phase (60:40, 0.025 M NH4H2PO4+2.5 mL/L TEA:acetonitrile) was added. The test compound was resuspended in the mobile phase by vortexing and more protein was removed by centrifugation at 4000 rpm for 5 min. Each sample was poured into an HPLC vial for test compound analysis on an Hewlett Packard 1100 series HPLC with UV detection. From each sample, 95 μL was injected onto a Phenomenex-Prodigy reverse phase C-18, 150×3.2 mm column and eluted with a 45–50% acetonitrile gradient run over 10 min. Test-compound plasma concentrations (μg/mL) were determined by a comparison to standard curve (peak area vs. conc. μg/mL) using known concentrations of test compound extracted from plasma samples in the manner described above. Along with the standards and unknowns, three groups (n=4) of quality controls (0.25 μg/mL, 1.5 μg/mL, and 7.5 μg/mL) were run to insure the consistency of the analysis. […] The quantitated test samples were plotted for visual display using Kalidagraph software and their pharmacokinetic parameters were determined using WIN NONLIN software.

[2] = tested on: human umbilical vein endothelial cells (HUVEC); test: HUVEC+VEGF proliferation assay; format: cell-based; details: VEGF 6 ng/mL, 72 h, MTT
How it was run: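 Exponentially growing passage 3–4 HUVEC were starved 24 h in F12K + 1% FBS, given compound (0.1% final DMSO) 1 h before 6 ng/mL final VEGF, then cultured 72 h. Proliferation was read as MTT dye reduction (4 h exposure), absorbance at 595 nm.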

[3] = percent inhibition at 100 nM, library amides from Example 101 (R101), crude mixtures in DMSO
[4] = library amides from Example 101 (R101), crude mixtures in DMSO, read-out: PAE PDGFR autophos IC50
[5] = 50 nM compound, unphosphorylated VEGF-R2Δ50

T3 sequence (P09619 33-1106): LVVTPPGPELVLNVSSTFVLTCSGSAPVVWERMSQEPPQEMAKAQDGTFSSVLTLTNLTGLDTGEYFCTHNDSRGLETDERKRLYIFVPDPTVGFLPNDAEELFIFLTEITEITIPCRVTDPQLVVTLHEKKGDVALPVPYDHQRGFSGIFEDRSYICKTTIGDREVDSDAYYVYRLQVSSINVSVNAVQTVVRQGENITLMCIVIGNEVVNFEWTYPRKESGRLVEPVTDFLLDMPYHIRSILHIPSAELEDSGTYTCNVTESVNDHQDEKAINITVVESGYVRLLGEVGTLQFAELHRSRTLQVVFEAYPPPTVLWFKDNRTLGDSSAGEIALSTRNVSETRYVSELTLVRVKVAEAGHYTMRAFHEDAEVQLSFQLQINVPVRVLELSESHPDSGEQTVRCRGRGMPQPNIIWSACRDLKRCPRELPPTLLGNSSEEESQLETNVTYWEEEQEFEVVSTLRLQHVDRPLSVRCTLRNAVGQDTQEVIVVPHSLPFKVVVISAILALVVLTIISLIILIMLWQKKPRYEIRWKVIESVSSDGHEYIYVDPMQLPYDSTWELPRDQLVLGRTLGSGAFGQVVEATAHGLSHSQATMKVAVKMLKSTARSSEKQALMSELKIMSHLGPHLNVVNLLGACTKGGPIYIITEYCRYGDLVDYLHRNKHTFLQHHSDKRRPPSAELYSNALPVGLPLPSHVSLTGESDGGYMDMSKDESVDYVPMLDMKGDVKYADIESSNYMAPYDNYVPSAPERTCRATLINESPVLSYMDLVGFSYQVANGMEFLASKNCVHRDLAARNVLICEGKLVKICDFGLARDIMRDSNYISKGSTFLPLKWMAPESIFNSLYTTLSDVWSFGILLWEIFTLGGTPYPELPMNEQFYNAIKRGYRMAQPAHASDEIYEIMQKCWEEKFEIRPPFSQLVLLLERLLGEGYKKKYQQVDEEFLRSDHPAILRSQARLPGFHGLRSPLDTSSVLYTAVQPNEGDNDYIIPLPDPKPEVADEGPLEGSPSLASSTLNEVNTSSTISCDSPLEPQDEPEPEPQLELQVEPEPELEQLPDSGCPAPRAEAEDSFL
T1 sequence (P35968 with tags, fused parts or gaps DEL940-989/E990V limits assumed): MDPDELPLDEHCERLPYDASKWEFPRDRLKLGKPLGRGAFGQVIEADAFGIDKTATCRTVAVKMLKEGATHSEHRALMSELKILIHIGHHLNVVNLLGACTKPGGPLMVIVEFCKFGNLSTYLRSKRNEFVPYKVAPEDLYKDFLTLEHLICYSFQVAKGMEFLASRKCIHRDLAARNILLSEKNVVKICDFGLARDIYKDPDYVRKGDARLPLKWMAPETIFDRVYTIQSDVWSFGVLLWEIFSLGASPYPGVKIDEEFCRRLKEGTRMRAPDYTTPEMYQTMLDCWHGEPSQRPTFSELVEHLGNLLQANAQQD
T2 sequence (P11362 456-766 L457V/C488A/C584S): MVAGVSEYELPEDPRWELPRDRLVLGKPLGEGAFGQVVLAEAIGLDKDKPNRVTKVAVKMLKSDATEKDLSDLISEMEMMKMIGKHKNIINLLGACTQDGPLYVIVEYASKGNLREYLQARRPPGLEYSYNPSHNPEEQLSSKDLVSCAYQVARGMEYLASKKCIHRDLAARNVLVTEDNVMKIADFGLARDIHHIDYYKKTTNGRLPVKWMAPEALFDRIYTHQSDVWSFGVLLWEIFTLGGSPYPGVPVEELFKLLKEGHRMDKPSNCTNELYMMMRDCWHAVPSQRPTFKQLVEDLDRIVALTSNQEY

Compound | inhibition at 0.1 µM [1, 3] | inhibition at 0.1 µM (FGF-R1) | IC50 (PDGFRβ; [4]) | further results
Cc1oc2cc(Oc3ccnc4ccsc34)ccc2c1C(=O)Nc1nncs1 | 75% | 35% | > 100 nM | –
Cc1oc2cc(Oc3ccnc4ccsc34)ccc2c1C(=O)Nc1nccs1 | 90% | 20% | > 100 nM | –
Cc1csc(NC(=O)c2c(C)oc3cc(Oc4ccnc5ccsc45)ccc23)n1 | 62% | 7% | > 100 nM | –
Cc1oc2cc(Oc3ccnc4ccsc34)ccc2c1C(=O)Nc1ccc2cn[nH]c2c1 | 87% | 0% | 57 nM | –
Cc1oc2cc(Oc3ccnc4ccsc34)ccc2c1C(=O)Nc1ccc2[nH]ncc2c1 | 96% | 0% | ~100 nM | –
Cc1oc2cc(Oc3ccnc4ccsc34)ccc2c1C(=O)NCCc1cccc(C(F)(F)F)c1 | 97% | 0% | > 100 nM | –
Cc1cc(C)c(O)c(NC(=O)c2c(C)oc3cc(Oc4ccnc5ccsc45)ccc23)c1 | – | 13% | ~100 nM | inhibition at 0.1 µM [1]: 87%
Cc1oc2cc(Oc3ccnc4ccsc34)ccc2c1C(=O)Nc1nnc(C2CC2)s1 | 100% | 4% | > 100 nM | –
Cc1oc2cc(Oc3ccnc4ccsc34)ccc2c1C(=O)Nc1cnc2ccccc2c1 | 85% | 7% | > 100 nM | –
Cc1oc2cc(Oc3ccnc4ccsc34)ccc2c1C(=O)Nc1ccc2ncsc2c1 | 96% | 0% | > 100 nM | –
Cc1oc2cc(Oc3ccnc4ccsc34)ccc2c1C(=O)Nc1cc(C(C)(C)C)[nH]n1 | 100% | 56% | > 100 nM | –
Cc1oc2cc(Oc3ccnc4ccsc34)ccc2c1C(=O)Nc1cc(C2CC2)nn1C | 56% | 3% | > 100 nM | –
Cc1oc2cc(Oc3ccnc4ccsc34)ccc2c1C(=O)Nc1cccc(-c2cc[nH]n2)c1 | 94% | 0% | > 100 nM | –
COc1ccc(NC(=O)c2c(C)oc3cc(Oc4ccnc5ccsc45)ccc23)c(OC)n1 | 92% | 1% | > 100 nM | –
Cc1oc2cc(Oc3ccnc4ccsc34)ccc2c1C(=O)NCC(c1ccc[nH]1)C(F)(F)F (stereo not shown) | 85% | 3% | > 100 nM | –
Cc1ccc(NC(=O)c2c(C)oc3cc(Oc4ccnc5ccsc45)ccc23)c(O)c1 | 85% | 0% | ~100 nM | –
Cc1oc2cc(Oc3ccnc4ccsc34)ccc2c1C(=O)Nc1n[nH]c2cccc(F)c12 | 61% | 0% | > 100 nM | –
Cc1oc2cc(Oc3ccnc4ccsc34)ccc2c1C(=O)Nc1cc(-c2ccco2)n[nH]1 | 101% | 1% | > 100 nM | –
CNC(=O)c1c(C)sc2cc(Oc3ccnc4cc(C(=O)N5C[C@H](OC)[C@H](OC)C5)sc34)ccc12 [Example 5, 6-(2-[meso-3,4-dimethoxypyrrolidine-1-carbonyl]thieno[3,2-b]pyridin-7-yloxy)-2-methylbenzo[b]thiophene-3-carboxylic acid methylamide] | – | – | – | IC50 (Huvec; Homo sapiens, HUVEC): 235 nM; inhibition at 0.05 µM [1, 5]: 73%; Ki ([1]; unphosphorylated VEGF-R2Δ50): 1.91 nM; mouse Cmin, po (Mouse PK assay): 256 ng/mL; AUC (Mouse PK assay): 12300 ng·h/mL; Cmax (Mouse PK assay): 6740 ng/mL; IC50 ([2]; Homo sapiens, HUVEC): 1.55 nM
Cc1sc2cc(Oc3ccnc4cc(C(=O)N5CCC[C@H]5CO)sc34)ccc2c1C(=O)NC1CC1 [Example 8, 6-(2-[(S)-2-(hydroxymethyl)pyrrolidine-1-carbonyl]thieno[3,2-b]pyridin-7-yloxy)-2-methylbenzo[b]thiophene-3-carboxylic acid cyclopropylamide] | – | – | – | IC50 (Huvec; Homo sapiens, HUVEC): 504 nM; inhibition at 0.05 µM [1, 5]: 94%; Ki ([1]; unphosphorylated VEGF-R2Δ50): 0.403 nM; mouse Cmin, po (Mouse PK assay): 105 ng/mL; AUC (Mouse PK assay): 2350 ng·h/mL; Cmax (Mouse PK assay): 666 ng/mL; IC50 ([2]; Homo sapiens, HUVEC): 1.37 nM
Cc1oc2cc(Oc3ccnc4ccsc34)ccc2c1C(=O)NCCCN1CCOCC1 [drawing 308] | 103% | 2% | 53 nM | –
Cc1cc(NC(=O)c2c(C)oc3cc(Oc4ccnc5ccsc45)ccc23)n[nH]1 [drawing 331] | 100% | 4% | 46 nM | –
Cc1oc2cc(Oc3ccnc4ccsc34)ccc2c1C(=O)NCCOC(C)C [drawing 361] | 94% | 0% | 61 nM | –
Cc1oc2cc(Oc3ccnc4ccsc34)ccc2c1C(=O)Nc1ccc(N2CCOCC2)nc1 [drawing 369] | 101% | 0% | 57 nM | –
Methoxy-azetidine-1-carbonyl)-thieno[3,2-b]pyridin-7-yloxy]-2-methyl-benzofuran-3-carboxylic acid methylamide [Example 78] | – | – | – | IC50 (Huvec; bFGF): 30 nM; FLVK (% inh @ 50 nM) [1, 5]: 93%; Ki ([1]; unphosphorylated VEGF-R2Δ50): 0.221 nM; IC50 [2]: 0.507 nM; IC50 (PDGFRβ; PAE cells overexpressing human PDGFRβ, PDGF-BB stimulated, read-out: PAE PDGFR autophos IC50 (nM) AVG): 14.8 nM
